Experimental data from PMC9414584, “Synthesis and Biological Evaluation of Indole-2-Carboxamides with Potent Apoptotic Antiproliferative Activity as EGFR/CDK2 Dual Inhibitors” (Pharmaceuticals, 2022).
Several values for one entry are separate records, joined by “and”; a condition that tells them apart may be missing. Equal entries are not always repeated.

How the values were obtained:
[1] = Cell viability assay (MTT) on MCF-10A cells; assay type: cell-based; conditions: human, MCF-10A mammary gland epithelial cells
Method: (§1) The MCF-10A (human mammary gland epithelial) cell line was used in the cell viability experiment. Compounds 5a–k, 6a–c, and 7 were incubated with MCF-10A cells for 4 days at 50 µM concentration, and the viability of cells was determined using the 3-(4,5-dimethylthiazol-2-yl)-2,5-diphenyltetrazolium bromide (MTT) test.. All compounds had no cytotoxic effects, and the vitality of the cells was more than 83% for most of the compounds examined.
as §1, with “test.” for “test.. All compounds had no cytotoxic effects, and the vitality of the cells was more than 83% for most of the compounds examined.”

[2] = system: epithelial cancer cell line (A-549); assay: Antiproliferative MTT assay, A-549; assay type: cell-based; conditions: Homo sapiens, A549; A-549, MTT; read-out: Antiproliferative Activity IC50 ± SEM A-549
Description: (§2) Using the MTT assay with doxorubicin as the reference drug, the antiproliferative activities of 5a–k, 6a–c, and 7 against four human cancer cell lines, including pancreas cancer cell line (Panc-1), breast cancer cell line (MCF-7), colon cancer cell line (HT-29), and epithelial cancer cell line (A-549) were investigated.

[3] = system: breast cancer cell line (MCF-7); assay: Antiproliferative MTT assay, MCF-7; assay type: cell-based; conditions: Homo sapiens, MCF7; MCF-7, MTT; read-out: Antiproliferative Activity IC50 ± SEM MCF-7
Description: as §2

[4] = system: pancreas cancer cell line (Panc-1); assay: Antiproliferative MTT assay, Panc-1; assay type: cell-based; conditions: Homo sapiens; Panc-1, MTT; read-out: Antiproliferative Activity IC50 ± SEM Panc-1
Description: as §2

[5] = system: colon cancer cell line (HT-29); assay: Antiproliferative MTT assay, HT-29; assay type: cell-based; conditions: Homo sapiens; HT-29, MTT; read-out: Antiproliferative Activity IC50 ± SEM HT-29
Description: as §2

[6] = system: four human cancer cell lines (Panc-1, MCF-7, HT-29, A-549); assay: Antiproliferative MTT assay, average of four cancer cell lines (mean GI50); assay type: cell-based; conditions: Homo sapiens; average of A-549, MCF-7, Panc-1, HT-29; read-out: Antiproliferative Activity IC50 Average (GI50 against the four cell lines)
[7] = biological target: EGFR (Homo sapiens, UniProt P00533); assay: EGFR-TK inhibitory assay; assay type: biochemical; conditions: read-out: EGFR Inhibition IC50 ± SEM
[8] = system: Caspase-8 in MCF-7 breast cancer cell line; assay: Caspase-8 level in MCF-7 cells; assay type: cell-based, human; conditions: for Caspase-8 Fold Change: vs control cells
[9] = system: Caspase-9 in MCF-7 breast cancer cell line; assay: Caspase-9 level in MCF-7 cells; assay type: cell-based, human; conditions: for Caspase-9 Fold Change: vs control cells
[10] = system: Cytochrome C in MCF-7 human breast cancer cell line; assay: Cytochrome C assay in MCF-7 cells; assay type: cell-based; conditions: for Cytochrome C Fold Change: vs untreated control cells
Method: The quantity of cytochrome C within the cell is important for activating caspases and commencing the intrinsic apoptosis process. […] The findings add to the evidence that apoptosis can be attributed to Cytochrome C overexpression and activation of the intrinsic apoptotic pathway triggered by the investigated compounds.
Indole-2-carboxamide derivatives 5d, 5e, and 5h were evaluated as Cytochrome C activators in the MCF-7 human breast cancer cell line.

[11] = system: Bax in breast cancer cell line (MCF-7); assay: Bax level assay in MCF-7 cells; assay type: cell-based, human; conditions: for Bax Fold Change: increase over control untreated cells
[12] = system: Bcl-2 in breast cancer cell line (MCF-7); assay: Bcl-2 level assay in MCF-7 cells; assay type: cell-based, human; conditions: for Bcl-2 Fold Change: reduced level vs control
[13] = system: p53 in MCF-7; assay: p53 transcription/level in MCF-7; assay type: cell-based, human; conditions: MCF-7 cells
Description: p53 is a unique protein that participates in several physiological processes such as cell metabolism, stem cell maintenance, and cell adhesion. Because p53 is frequently inactivated in cancer cells, the cells are unable to undergo apoptosis. Similarly, activating, or stabilizing p53 aids cancer cells in normalizing p53-controlled physiological processes and increasing apoptotic activity.

[14] = biological target: CDK2 enzyme (Homo sapiens, UniProt P24941); assay: CDK2 inhibitory assay
[15] = system: Caspase-3 in MCF-7 breast cancer cell line; assay: Caspase-3 level in MCF-7 cells; conditions: for Caspase-3 Fold Change: vs control untreated cells
[16] = system: A549 lung, MCF-7 breast, Panc-1 Pancreatic, and HT-29 colon cancer cell lines; parameters: method as in PMID 31128433; conditions: A549, MCF-7, Panc-1, HT-29; read-out: GI50 against the four examined cell lines (mean GI50); cited from earlier work

EGFR, sequence (P00533 25-1210): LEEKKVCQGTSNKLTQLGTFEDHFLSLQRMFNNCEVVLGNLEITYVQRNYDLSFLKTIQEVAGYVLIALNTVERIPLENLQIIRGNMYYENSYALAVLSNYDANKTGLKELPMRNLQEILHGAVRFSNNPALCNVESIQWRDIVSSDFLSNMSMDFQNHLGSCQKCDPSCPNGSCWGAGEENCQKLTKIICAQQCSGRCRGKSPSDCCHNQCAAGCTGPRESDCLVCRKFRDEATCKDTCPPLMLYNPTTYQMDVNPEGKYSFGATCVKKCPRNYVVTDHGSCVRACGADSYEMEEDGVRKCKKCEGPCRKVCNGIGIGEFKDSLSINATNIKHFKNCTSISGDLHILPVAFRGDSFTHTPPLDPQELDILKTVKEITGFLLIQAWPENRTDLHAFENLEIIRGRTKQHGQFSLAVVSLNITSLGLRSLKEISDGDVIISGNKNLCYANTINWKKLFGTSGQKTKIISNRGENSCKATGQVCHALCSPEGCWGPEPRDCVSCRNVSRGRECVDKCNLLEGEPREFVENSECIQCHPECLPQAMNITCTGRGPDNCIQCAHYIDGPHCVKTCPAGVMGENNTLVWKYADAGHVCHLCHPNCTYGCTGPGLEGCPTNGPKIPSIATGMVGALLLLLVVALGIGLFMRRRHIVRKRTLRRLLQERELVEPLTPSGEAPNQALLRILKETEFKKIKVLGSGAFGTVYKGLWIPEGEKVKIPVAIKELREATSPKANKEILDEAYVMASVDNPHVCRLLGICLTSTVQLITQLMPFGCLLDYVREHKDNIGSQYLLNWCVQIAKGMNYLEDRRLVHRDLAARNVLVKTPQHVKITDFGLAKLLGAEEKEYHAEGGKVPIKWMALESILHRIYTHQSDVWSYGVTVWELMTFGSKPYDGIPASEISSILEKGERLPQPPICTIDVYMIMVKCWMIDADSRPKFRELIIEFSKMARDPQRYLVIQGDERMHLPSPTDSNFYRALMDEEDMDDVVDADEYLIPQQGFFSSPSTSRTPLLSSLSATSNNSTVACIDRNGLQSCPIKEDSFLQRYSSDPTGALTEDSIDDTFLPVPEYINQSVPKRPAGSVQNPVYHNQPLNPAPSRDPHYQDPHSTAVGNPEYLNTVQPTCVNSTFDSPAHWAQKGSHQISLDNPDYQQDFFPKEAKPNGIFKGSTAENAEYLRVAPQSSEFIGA

Compound | IC50 [2] | IC50 [3] | IC50 [4] | IC50 [5] | IC50 [6] | Caspase-8 Conc [8] | Caspase-8 Fold Change [8] | Caspase-9 Conc [9] | Caspase-9 Fold Change [9] | Cytochrome C Conc [10] | Cytochrome C Fold Change [10] | Bax Conc [11] | Bax Fold Change [11] | Bcl-2 Conc [12] | Bcl-2 Fold Change [12] | p53 Conc [13] | Caspase-3 Conc [15] | Caspase-3 Fold Change [15] | other results
Cc1c(C(=O)NCCc2ccc(N3CCCC3C)cc2)[nH]c2ccc(Cl)cc12 (stereo not shown) [Compound 5e, 5-Chloro-3-methyl-N-(4-(2-methylpyrrolidin-1-yl)phenethyl)-1H-indole-2-carboxamide] | 950 ± 50 nM | 800 ± 50 nM | 1000 ± 200 nM | 1100 ± 100 nM | 950 nM | 2.17 ng/mL | 10.90 fold | 17.25 ng/mL | 18.15 fold | 0.80 ng/mL | 16 fold | 296.50 pg/mL and 296.50 ± 2.50 pg/mL | 36 fold | 0.87 ng/mL | 5.90 fold | 1435 pg/mL and 1435 ± 15 pg/mL | 635.50 ± 5.50 pg/mL | 9.70 fold | viability at 4 days, 50 µM [1]: 93%; IC50 [7]: 93 ± 8 nM; IC50 [14]: 13 ± 1 nM; fold more active than dinaciclib on CDK2 ([14]; vs reference dinaciclib): 1.5 fold
COc1cccc2c1C(=O)c1c(O)c3c(c(O)c1C2=O)C[C@@](O)(C(=O)CO)C[C@@H]3O[C@H]1C[C@H](N)[C@H](O)[C@H](C)O1 [Doxorubicin, reference compound] | 1200 ± 200 nM | 900 ± 100 nM | 1400 ± 200 nM | 1000 ± 100 nM | 1100 nM | 1.80 ng/mL | 9.00 fold | 16.25 ng/mL | 17.00 fold | 0.60 ng/mL | 12 fold | 275.80 ± 2.50 pg/mL | 33 fold | 0.98 ng/mL | 5.20 fold | 1265 ± 10 pg/mL | 503.50 ± 4.50 pg/mL | 7.70 fold | p53 Fold Change ([13]; vs control): 25 fold; p53 Conc ([13]; listed as doxorubicin): 1265 pg/mL; GI50 [16]: 1130 nM
